# Data taken from PMC9501633, “Synthesis, Characterisation and Mechanism of Action of Anticancer 3-Fluoroazetidin-2-ones” (Pharmaceuticals, 2022).
# “And” between values parts separate entries of the source, which are not always exact repeats. Equal values may be shown once. Read-outs that look alike come from different tables or passages of the source.
# Key:
# NCI 60 cell line panel = assay: NCI 60 cell line screen, whole panel; type: cell-based; settings: for MG-MID TGI / GI50 / CC50: 48 h; for GI50: read-out: MG-MID GI50
# Description: The antiproliferative effects of selected compounds 33, 37 and 43 were initially evaluated in the NCI 60 cell line screen at 10 μM concentration (see Supplementary Materials Table S3). […] . […] .
# Compound 33 was next selected for evaluation in the NCI 60 cell line five-dose screen. The GI50 (50% growth inhibition), TGI (total growth inhibition) and LC50 (50% lethal concentration) were determined in the NCI panel of 60 cell lines, using the sulphorhodamine B (SRB) protein assay (Table 5). The GI50 value provides the growth inhibition of the selected compound, while the cytotoxic effect is evaluated in the LC50 value. […] . […] . Glioblastoma is an aggressive and fast-growing brain tumour with a median survival time of 9–16 months from diagnosis, and these tumours quickly evolve resistance to temozolomide chemotherapy, which is the only FDA-approved treatment. […] . Further mechanistic and cellular studies were carried out and are described below.
# aData obtained from NCI in vitro human tumour cell screen 1 dose assay (10 µM). 33 (NCI
# CCRF-CEM = assay: NCI 60 cell line screen, Leukaemia; type: cell-based, human
# K-562 = assay: NCI 60 cell line screen, Leukaemia; type: cell-based, human
# A549/A TCC = assay: NCI 60 cell line screen, NSCLung; type: cell-based, human
# NCI-H322M = assay: NCI 60 cell line screen, NSCLung; type: cell-based, human
# NCI-H460 = assay: NCI 60 cell line screen, NSCLung; type: cell-based, human
# COLO 205 = assay: NCI 60 cell line screen, Colon; type: cell-based, human
# HCC-2998 = assay: NCI 60 cell line screen, Colon; type: cell-based, human
# SF-539 = assay: NCI 60 cell line screen, CNS; type: cell-based, human
# SNB-19 = assay: NCI 60 cell line screen, CNS; type: cell-based, human
# SNB-75 = assay: NCI 60 cell line screen, CNS; type: cell-based, human
# LOX IMVI = assay: NCI 60 cell line screen, Melanoma; type: cell-based, human
# MALME-3M = assay: NCI 60 cell line screen, Melanoma; type: cell-based, human
# UACC-62 = assay: NCI 60 cell line screen, Melanoma; type: cell-based, human
# OVCAR-5 = assay: NCI 60 cell line screen, Ovarian; type: cell-based, human
# OVCAR-8 = assay: NCI 60 cell line screen, Ovarian; type: cell-based, human
# NCI/ADR-RES = assay: NCI 60 cell line screen, Ovarian; type: cell-based, human
# 786–0 = assay: NCI 60 cell line screen, Renal; type: cell-based, human
# RXF 393 = assay: NCI 60 cell line screen, Renal; type: cell-based, human
# SN12C = assay: NCI 60 cell line screen, Renal; type: cell-based, human
# UO-31 = assay: NCI 60 cell line screen, Renal; type: cell-based, human
# PC-3 = assay: NCI 60 cell line screen, Prostate; type: cell-based, human
# MCF7 = assay: NCI 60 cell line screen, Breast; type: cell-based, human
# MDA-MB-231/ATCC = assay: NCI 60 cell line screen, Breast; type: cell-based, human
# BT-549 = assay: NCI 60 cell line screen, Breast; type: cell-based, human
# [1] = 5-dose assay, mean-graph midpoint
# [2] = Homo sapiens, 60 cell, 5-dose assay, mean-graph midpoint
compound,measurement,setting,value
"COc1ccc(/C=C\c2cc(OC)c(OC)c(OC)c2)cc1O [CA-4, combretastatin A-4, reference compound]",MG-MID TGI,NCI 60 cell line panel; [1],10300 nM
same,GI50,NCI 60 cell line panel; [2],99 nM
"COc1ccc(C2C(F)C(=O)N2c2cc(OC)c(OC)c(OC)c2)cc1F (stereo not drawn) [Compound 33, 3-Fluoro-4-(3-fluoro-4-methoxyphenyl)-1-(3,4,5-trimethoxyphenyl)azetidin-2-one]",TGI,"CCRF-CEM; 5-dose, 48 h",>100000 nM
same,GI50,"CCRF-CEM; Homo sapiens, 5-dose, 48 h",47.1 nM
same,inhibition at 10 µM,"CCRF-CEM; Homo sapiens, one dose 10 µM",86.8%
same,Growth %,CCRF-CEM; one dose 10 µM,13.16%
same,GI50,"K-562; 5-dose, 48 h",38.3 nM
same,TGI,"K-562; 5-dose, 48 h",>100000 nM
same,GI50,"K-562; Homo sapiens, K562, 48 h, 5-dose, 48 h",38 nM
same,inhibition at 10 µM,"K-562; Homo sapiens, K562, one dose 10 µM",90.5%
same,Growth %,K-562; one dose 10 µM,9.45%
same,TGI,"A549/A TCC; 5-dose, 48 h",>100000 nM
same,GI50,"A549/A TCC; Homo sapiens, 5-dose, 48 h",394 nM
same,inhibition at 10 µM,"A549/A TCC; Homo sapiens, one dose 10 µM",84.7%
same,Growth %,A549/A TCC; one dose 10 µM,15.33%
same,TGI,"NCI-H322M; 5-dose, 48 h",>100000 nM
same,GI50,"NCI-H322M; Homo sapiens, 5-dose, 48 h",1630 nM
same,inhibition at 10 µM,"NCI-H322M; Homo sapiens, one dose 10 µM",53.5%
same,Growth %,NCI-H322M; one dose 10 µM,46.45%
same,TGI,"NCI-H460; 5-dose, 48 h",91100 nM
same,GI50,"NCI-H460; Homo sapiens, 5-dose, 48 h",356 nM
same,inhibition at 10 µM,"NCI-H460; Homo sapiens, one dose 10 µM",92.9%
same,Growth %,NCI-H460; one dose 10 µM,7.06%
same,TGI,"COLO 205; 5-dose, 48 h",503 nM
same,GI50,"COLO 205; Homo sapiens, 5-dose, 48 h",156 nM
same,CC50,"COLO 205; Homo sapiens, 5-dose, 48 h, read-out: LC50 (the source's name)",8230 nM
same,inhibition at 10 µM,"COLO 205; Homo sapiens, one dose 10 µM",168%
same,Growth %,COLO 205; one dose 10 µM,-68%
same,TGI,"HCC-2998; 5-dose, 48 h",>100000 nM
same,GI50,"HCC-2998; Homo sapiens, 5-dose, 48 h",406 nM
same,inhibition at 10 µM,"HCC-2998; Homo sapiens, one dose 10 µM",67.1%
same,Growth %,HCC-2998; one dose 10 µM,32.93%
same,TGI,"SF-539; 5-dose, 48 h",217 nM
same,GI50,"SF-539; Homo sapiens, 5-dose, 48 h",28 nM
same,inhibition at 10 µM,"SF-539; Homo sapiens, one dose 10 µM",95.8%
same,Growth %,SF-539; one dose 10 µM,4.17%
same,TGI,"SNB-19; 5-dose, 48 h",>100000 nM
same,GI50,"SNB-19; Homo sapiens, 5-dose, 48 h",302 nM
same,inhibition at 10 µM,"SNB-19; Homo sapiens, one dose 10 µM",66%
same,Growth %,SNB-19; one dose 10 µM,34.05%
same,TGI,"SNB-75; 5-dose, 48 h",>100000 nM
same,GI50,"SNB-75; Homo sapiens, 5-dose, 48 h",> 100000 nM
same,inhibition at 10 µM,"SNB-75; Homo sapiens, one dose 10 µM",49.1%
same,Growth %,SNB-75; one dose 10 µM,50.89%
same,TGI,"LOX IMVI; 5-dose, 48 h",>100000 nM
same,GI50,"LOX IMVI; Homo sapiens, 5-dose, 48 h",90.4 nM
same,inhibition at 10 µM,"LOX IMVI; Homo sapiens, one dose 10 µM",76%
same,Growth %,LOX IMVI; one dose 10 µM,23.98%
same,TGI,"MALME-3M; 5-dose, 48 h",>100000 nM
same,inhibition at 10 µM,"MALME-3M; Homo sapiens, one dose 10 µM",26%
same,Growth %,MALME-3M; one dose 10 µM,74.02%
same,TGI,"UACC-62; 5-dose, 48 h",>100000 nM
same,inhibition at 10 µM,"UACC-62; Homo sapiens, one dose 10 µM",46.5%
same,Growth %,UACC-62; one dose 10 µM,53.45%
same,TGI,"OVCAR-5; 5-dose, 48 h",>100000 nM
same,GI50,"OVCAR-5; Homo sapiens, 5-dose, 48 h",423 nM
same,inhibition at 10 µM,"OVCAR-5; Homo sapiens, one dose 10 µM",56.4%
same,Growth %,OVCAR-5; one dose 10 µM,43.57%
same,TGI,"OVCAR-8; 5-dose, 48 h",>100000 nM
same,GI50,"OVCAR-8; Homo sapiens, 5-dose, 48 h",368 nM
same,inhibition at 10 µM,"OVCAR-8; Homo sapiens, one dose 10 µM",86.3%
same,Growth %,OVCAR-8; one dose 10 µM,13.71%
same,GI50,"NCI/ADR-RES; 5-dose, 48 h",42.4 nM
same,TGI,"NCI/ADR-RES; 5-dose, 48 h",>100000 nM
same,GI50,"NCI/ADR-RES; Homo sapiens, 48 h, 5-dose",42 nM
same,inhibition at 10 µM,"NCI/ADR-RES; Homo sapiens, one dose 10 µM",91.6%
same,Growth %,NCI/ADR-RES; one dose 10 µM,8.4%
same,Growth %,"786–0; 786-0, one dose 10 µM",22.92%
same,TGI,"786–0; 786–0, 5-dose, 48 h",15100 nM
same,inhibition at 10 µM,"786–0; Homo sapiens, 786-0, one dose 10 µM",77.1%
same,GI50,"786–0; Homo sapiens, 786–0, 5-dose, 48 h",46.2 nM
same,GI50,"RXF 393; 5-dose, 48 h",39.8 nM
same,TGI,"RXF 393; 5-dose, 48 h",60000 nM
same,GI50,"RXF 393; Homo sapiens, RXF 393, 48 h, 5-dose, 48 h",39 nM
same,inhibition at 10 µM,"RXF 393; Homo sapiens, one dose 10 µM",71.2%
same,Growth %,RXF 393; one dose 10 µM,28.8%
same,TGI,"SN12C; 5-dose, 48 h",>100000 nM
same,GI50,"SN12C; Homo sapiens, 5-dose, 48 h",482 nM
same,inhibition at 10 µM,"SN12C; Homo sapiens, one dose 10 µM",66.7%
same,Growth %,SN12C; one dose 10 µM,33.29%
same,TGI,"UO-31; 5-dose, 48 h",>100000 nM
same,GI50,"UO-31; Homo sapiens, 5-dose, 48 h",171 nM
same,inhibition at 10 µM,"UO-31; Homo sapiens, one dose 10 µM",56.8%
same,Growth %,UO-31; one dose 10 µM,43.2%
same,TGI,"PC-3; 5-dose, 48 h",>100000 nM
same,GI50,"PC-3; Homo sapiens, 5-dose, 48 h",42 nM
same,inhibition at 10 µM,"PC-3; Homo sapiens, one dose 10 µM",76.9%
same,Growth %,PC-3; one dose 10 µM,23.13%
same,inhibition at 10 µM,"MCF7; Homo sapiens, MCF7, MCF7, one dose 10 µM",87.2%
same,GI50,"MCF7; Homo sapiens, MCF7, 5-dose, 48 h",36.4 nM
same,TGI,"MCF7; MCF7, 5-dose, 48 h",>100000 nM
same,Growth %,"MCF7; MCF7, one dose 10 µM",12.83%
same,Inhibition %,"MCF7; MCF7, one dose 10 µM",87.2%
same,TGI,"MDA-MB-231/ATCC; 5-dose, 48 h",>100000 nM
same,GI50,"MDA-MB-231/ATCC; Homo sapiens, 5-dose, 48 h",355 nM
same,inhibition at 10 µM,"MDA-MB-231/ATCC; Homo sapiens, one dose 10 µM",80.3%
same,Growth %,MDA-MB-231/ATCC; one dose 10 µM,19.65%
same,TGI,"BT-549; 5-dose, 48 h",33800 nM
same,GI50,"BT-549; Homo sapiens, 5-dose, 48 h",49.8 nM
same,inhibition at 10 µM,"BT-549; Homo sapiens, one dose 10 µM",84.7%
same,Growth %,BT-549; one dose 10 µM,15.26%
same,MG-MID TGI,NCI 60 cell line panel; [1],52480 nM and 52400 nM
same,GI50,NCI 60 cell line panel; [1],223 nM
same,GI50,NCI 60 cell line panel; [2],224 nM
same,inhibition at 10 µM,"NCI 60 cell line panel; Homo sapiens, 60 cell, one dose 10 μM, mean over the 60 cell lines, read-out: mean growth inhibition",76.3%
same,CC50,"NCI 60 cell line panel; Homo sapiens, 60 cell, 5-dose assay, mean-graph midpoint, read-out: MG-MID LC50",95500 nM
same,CC50,"NCI 60 cell line panel; Homo sapiens, all cell lines except COLO 205 and SK-MEL-5, 5-dose, read-out: LC50 (the source's name)",> 100000 nM
same,mean Growth %,"NCI 60 cell line panel; one dose 10 µM, mean over the cell lines",23.66%
